Laboratory results taken from US10695275B2, “Anti-aging composition” (NEOPHARM CO., LTD., priority 2016, dated 2020).

Columns and labels:
Assay type in all cases: cell-based
[1] = tested on: human-derived fibroblasts; assay: toxicity / cell proliferation in human-derived fibroblasts; settings: concentration of 20 uM
[2] = tested on: human fibroblasts; assay: type-1 collagen synthesis in human fibroblasts (PICP EIA kit); settings: 24 hours
Procedure: N-(2-hydroxyethyl)octanamide was added to a culture medium of human fibroblasts (DMEM medium, 10% fetal bovine serum, 1% antibiotics) to confirm the effect of accelerating type-1 collagen synthesis in a cell level. The measurement of the synthesized collagen was qualified using a procollagen type I C-peptide enzyme immunoassay kit (PICP EIA kit).
The human fibroblast culture medium was used to aliquot the human-derived fibroblasts (human fibroblasts) into 6 wells at 2×10^5 cell/well. After cell adhesion was confirmed, the culture medium was treated with 2 ml of N-(2-hydroxyethyl)octanamide as an effective component (anti-aging composition) per each well, at a concentration of 20 uM. After the culture medium was cultured in an incubator under a condition of 37° C. and 5% CO2 for 24 hours, type-1 collagen which is related to a wrinkle forming factor was measured in a cell extract. Here, the concentration of the anti-aging composition is within a range being not toxic and not deriving cell proliferation, when treating human-derived fibroblasts. […]
The effect of accelerating type-1 collagen synthesis was confirmed in the same manner as in Example 1, except that the effective component was not used (a negative control). In addition, type-1 collagen synthesis ability relative to the negative control was calculated as a ratio, and represented by a rate of increase. […]

[3] = tested on: Artificial skin (EpiDermFT); assay: collagen fiber staining (Masson's Trichrome) in artificial skin; settings: 0.1%, 100 μl applied on the surface, 24 hours
From the text: When photo-aging of the skin proceeds by ultraviolet rays, a collagen fiber network in an epidermis-dermis junction is damaged. Thus, the amount and form of collagen fiber is used as an indicator of skin photo-aging. The skin tissue of a hairless mouse which was irradiated with ultraviolet rays after N-(2-hydroxyethyl)octanamide was applied, was stained with Masson's Trichrome, observed using an optical microscope (IX71, Olympus, JPN), and then photographed using a digital camera (DP71, Olympus, JPN).
Artificial skin (EpiDermFT™ from MatTek, Ashland, USA) was purchased, and stabilized in an exclusive medium (EFT-400) for 18 hours. On the surface of the artificial skin, 100 μl of N-(2-hydroxyethyl)octanamide as an effective component (anti-aging composition) at a concentration of 0.1% was applied. After 24 hours, the artificial skin tissue was immobilized with 10% formaldehyde, and embedded with paraffin, and a tissue sliced at 5 μm was stained with Masson's Trichrome (M&T), thereby observing a staining degree of collagen fiber. The results were illustrated in the following FIG. 2.

Question: Which results are given for `CCCCCCCC(=O)NCCO` [Example 1, N-(2-hydroxyethyl)octanamide]?
Answer: toxicity to human-derived fibroblasts [1]: not toxic; Rate of increase (%) of type-1 collagen synthesis relative to negative control ([2]; 20 uM, ratio to Comparative Example 1 (non-treated)): 750%; type-1 collagen concentration (20 uM) ([2]; human fibroblasts treated at 20 uM, measured in cell extract): 0.015; staining degree of collagen fiber (aniline blue) in the dermal layer under the epidermis [3]: strongly stained
